Assay results: patent US12448369B2 (Edgewise Therapeutics, Inc., priority 2023, dated 2025)

Experiments:
[1] = tested on: Porcine atria myofibrils (atrial myosin ATPase); experiment: Myofibril ATPase assay, porcine atria myofibrils; format: biochemical; details: porcine atria myofibrils; Y75 value (75% activity relative to no compound)
Summary of the method: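 Coupled PK-LDH reaction links ADP from myosin ATPase to NADH loss, read at 340 nm every 1.5-2 min for 75 min. Slopes (mAU/min) normalized to vehicle-only wells (100%) and fit to a 4-parameter logistic; Y75 is the concentration cutting activity by 25%, Y125 is reported for activators.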

[2] = tested on: Rabbit Psoas myofibrils (skeletal myosin ATPase); experiment: Myofibril ATPase assay, rabbit psoas (skeletal) myofibrils; format: biochemical; details: rabbit psoas myofibrils; Y75 value
Summary of the method: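 Rabbit psoas skeletal myofibrils in PIPES/CaCl2/EGTA pCa buffer, pH 7.0. ATPase rate followed by PK-LDH-coupled NADH loss at 340 nm, read every 1.5–2 min for 75 min. Slopes normalized to vehicle (100%) and fitted to a 4-parameter logistic; values are Y75 (25% inhibition) or Y125 (25% activation) concentrations.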

[3] = molecular target: T1, Porcine ventricle myofibrils (ventricular myosin ATPase) (Sus scrofa, UniProt P79293); experiment: Myofibril ATPase assay, porcine ventricle myofibrils; format: biochemical, porcine (Yucatan minipigs); details: porcine ventricle myofibrils; Y75 value
T1 construct: Myofibrils from porcine cardiac muscle was isolated from the left ventricle of Yucatan minipigs; tissue Exemplar Genetics; host or cells: left ventricle of Yucatan minipigs, myofibrils prepared in house
Summary of the method: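 Read-out: A340 kinetic, NADH consumption coupled to ADP via PK-LDH, 75 min. Yucatan minipig LV myofibrils, pCa buffer (PIPES/CaCl2/EGTA, pH 7.0). Linear-regression slope (mAU/min), vehicle = 100%, 4PL fit; Y75 or Y125 reported.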

T1 sequence (P79293 whole entry): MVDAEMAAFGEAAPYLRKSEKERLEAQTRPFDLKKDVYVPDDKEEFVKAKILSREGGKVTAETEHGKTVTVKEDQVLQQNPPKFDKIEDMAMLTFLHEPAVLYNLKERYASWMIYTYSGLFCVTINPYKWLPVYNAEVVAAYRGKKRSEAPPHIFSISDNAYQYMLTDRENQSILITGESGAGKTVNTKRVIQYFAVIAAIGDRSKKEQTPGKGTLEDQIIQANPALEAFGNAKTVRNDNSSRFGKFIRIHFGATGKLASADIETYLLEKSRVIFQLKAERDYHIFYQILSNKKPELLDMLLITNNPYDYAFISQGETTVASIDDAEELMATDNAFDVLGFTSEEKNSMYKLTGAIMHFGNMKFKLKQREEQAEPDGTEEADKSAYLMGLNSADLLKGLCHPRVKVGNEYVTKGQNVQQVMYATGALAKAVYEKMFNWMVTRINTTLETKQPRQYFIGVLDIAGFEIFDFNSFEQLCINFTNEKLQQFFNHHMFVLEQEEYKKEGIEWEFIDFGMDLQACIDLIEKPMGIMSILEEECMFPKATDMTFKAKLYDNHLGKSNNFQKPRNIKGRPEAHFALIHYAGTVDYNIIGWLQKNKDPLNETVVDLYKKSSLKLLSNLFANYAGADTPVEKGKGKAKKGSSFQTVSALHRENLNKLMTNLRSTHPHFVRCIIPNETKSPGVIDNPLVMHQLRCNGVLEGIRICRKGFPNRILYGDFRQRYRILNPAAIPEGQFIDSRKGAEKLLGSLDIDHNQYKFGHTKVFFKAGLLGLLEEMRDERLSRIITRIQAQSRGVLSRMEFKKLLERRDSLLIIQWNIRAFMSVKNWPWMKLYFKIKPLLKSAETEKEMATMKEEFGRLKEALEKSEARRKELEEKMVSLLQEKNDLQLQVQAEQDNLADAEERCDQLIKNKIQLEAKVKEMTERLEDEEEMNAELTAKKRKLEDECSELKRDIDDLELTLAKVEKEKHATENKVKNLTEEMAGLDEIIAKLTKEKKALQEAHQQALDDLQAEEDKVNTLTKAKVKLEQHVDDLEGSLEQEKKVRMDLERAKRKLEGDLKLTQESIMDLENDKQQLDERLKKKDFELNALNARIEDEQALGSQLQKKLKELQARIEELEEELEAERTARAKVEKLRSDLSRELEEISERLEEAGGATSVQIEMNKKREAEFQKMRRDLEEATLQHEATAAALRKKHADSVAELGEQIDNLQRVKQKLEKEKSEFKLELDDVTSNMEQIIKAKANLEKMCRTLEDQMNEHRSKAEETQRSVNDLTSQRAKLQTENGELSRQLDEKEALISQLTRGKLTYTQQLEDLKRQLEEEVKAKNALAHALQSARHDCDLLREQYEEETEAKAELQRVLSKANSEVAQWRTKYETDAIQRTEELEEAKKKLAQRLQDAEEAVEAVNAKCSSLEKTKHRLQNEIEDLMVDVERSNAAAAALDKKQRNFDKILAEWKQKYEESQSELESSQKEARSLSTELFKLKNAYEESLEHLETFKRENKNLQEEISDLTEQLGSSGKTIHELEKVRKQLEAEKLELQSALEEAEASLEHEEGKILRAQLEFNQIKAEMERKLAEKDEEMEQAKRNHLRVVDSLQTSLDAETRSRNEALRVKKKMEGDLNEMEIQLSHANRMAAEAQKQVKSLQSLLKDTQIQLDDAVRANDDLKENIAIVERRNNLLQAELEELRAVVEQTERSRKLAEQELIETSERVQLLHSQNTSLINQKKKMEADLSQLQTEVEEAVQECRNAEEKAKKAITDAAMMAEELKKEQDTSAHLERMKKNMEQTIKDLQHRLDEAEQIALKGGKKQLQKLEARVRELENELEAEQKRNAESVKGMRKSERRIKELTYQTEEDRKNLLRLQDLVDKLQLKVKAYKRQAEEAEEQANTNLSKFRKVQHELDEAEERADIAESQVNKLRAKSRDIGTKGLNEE

Row | Atrial EC25 [1] [µM] | Skeletal EC25 [2] [µM] | Ventricular EC25 [3] [µM] | Compound
1 | 7.02 | 22.09 | 53.99 | Cc1c(CC(=O)N[C@@H](CO)c2ccc(F)cc2F)c(=O)[nH]c2ccc(C#N)nc12 [compound 211]
2 | 100.00 | 100.00 | 100.00 | Cc1c(CC(=O)N[C@H](CO)c2ccc(F)cc2F)c(=O)[nH]c2ccc(C(F)(F)F)nc12 [compound 216]
3 | 0.36 | 0.71 | 6.79 | Cc1c(CC(=O)N[C@@H](CO)c2ccc(F)cc2F)c(=O)[nH]c2ccc(C(F)(F)F)nc12 [compound 217]
4 | 100.00 | 14.86 | 100.00 | Cc1c(CC(=O)N[C@H](CO)c2ccc(C#N)cc2F)c(=O)[nH]c2ccc(C(F)(F)F)nc12 [compound 218]
5 | 0.12 | 0.14 | 7.16 | Cc1c(CC(=O)N[C@@H](CO)c2ccc(C#N)cc2F)c(=O)[nH]c2ccc(C(F)(F)F)nc12 [compound 219]
6 | 100.00 | 100.00 | 100.00 | Cc1c(CC(=O)N[C@H](CO)c2ccc(C#N)cc2F)c(=O)[nH]c2ccc(C#N)nc12 [compound 220]
7 | 1.12 | 2.27 | 45.66 | Cc1c(CC(=O)N[C@@H](CO)c2ccc(C#N)cc2F)c(=O)[nH]c2ccc(C#N)nc12 [compound 221]
8 | 100.00 | 100.00 | 100.00 | Cc1nccc2[nH]c(=O)c(CC(=O)Nc3c[nH]c4cc(F)cc(F)c34)c(C)c12 [compound 228]
9 | 8.21 | 4.20 | 34.95 | Cc1c(CC(=O)N[C@H](CO)c2ccc(F)cc2F)c(=O)[nH]c2ccnc(C#N)c12 [compound 229]
10 | 0.11 | 0.02 | 0.96 | Cc1c(CC(=O)N[C@@H](CO)c2ccc(F)cc2F)c(=O)[nH]c2ccnc(C#N)c12 [compound 230]
11 | 100.00 | 100.00 | 100.00 | Cc1c(CC(=O)N[C@H](CO)c2ccc(F)cc2F)c(=O)[nH]c2ccnc(C(F)(F)F)c12 [compound 231]
12 | 0.47 | 0.02 | 2.74 | Cc1c(CC(=O)N[C@@H](CO)c2ccc(F)cc2F)c(=O)[nH]c2ccnc(C(F)(F)F)c12 [compound 232]
13 | 100.00 | 100.00 | 100.00 | Cc1nccc2[nH]c(=O)c(CC(=O)NC(CO)c3ncccc3F)c(C)c12 (stereo not drawn) [compound 237]
14 | 100.00 | 100.00 | 100.00 | Cc1c(CC(=O)N[C@@H](C)c2ccc(F)cc2F)c(=O)[nH]c2cnnc(O)c12 [compound 240]
15 | 100.00 | 100.00 | 100.00 | Cc1c(CC(=O)N[C@H](CO)c2ncc(F)cc2F)c(=O)[nH]c2ccc(C#N)nc12 [compound 259]
16 | 2.40 | 33.76 | 100.00 | Cc1c(CC(=O)N[C@@H](CO)c2ncc(F)cc2F)c(=O)[nH]c2ccc(C#N)nc12 [compound 260]
17 | 100.00 | 26.68 | 100.00 | Cc1c(CC(=O)N[C@H](CO)c2ncc(F)cc2F)c(=O)[nH]c2ccnc(C#N)c12 [compound 261]
18 | 0.19 | 0.13 | 0.67 | Cc1c(CC(=O)N[C@@H](CO)c2ncc(F)cc2F)c(=O)[nH]c2ccnc(C#N)c12 [compound 262]
19 | 100.00 | 100.00 | 100.00 | Cc1c(CC(=O)N[C@H](CO)c2ncc(F)cc2F)c(=O)[nH]c2ccnc(C(F)(F)F)c12 [compound 263]
20 | 0.29 | 0.57 | 2.73 | Cc1c(CC(=O)N[C@@H](CO)c2ncc(F)cc2F)c(=O)[nH]c2ccnc(C(F)(F)F)c12 [compound 264]
21 | 100.00 | 2.47 | 34.76 | Cc1c(CC(=O)N[C@H](C)c2ccc(F)cc2F)c(=O)[nH]c2ccnc(C#N)c12 [compound 269]

Row | Atrial EC25 [1] [µM] | Skeletal EC25 [2] [µM] | Ventricular EC25 [3] [µM] | Compound
22 | 100.00 | 100.00 | 100.00 | Cc1c(CC(=O)N[C@H](C)c2ccc(F)cc2F)c(=O)[nH]c2ccnc(C(F)(F)F)c12 [compound 270]
23 | 1.25 | 0.14 | 15.06 | Cc1c(CC(=O)N[C@@H](C)c2ccc(F)cc2F)c(=O)[nH]c2ccnc(NC3CC3)c12 [compound 276]
24 | 100.00 | 82.10 | 84.29 | Cc1c(CC(=O)N[C@@H](C)c2ccc(F)cc2F)c(=O)[nH]c2ccnc(NCC(C)C)c12 [compound 277]
25 | 17.26 | 2.73 | 100.00 | Cc1c(CC(=O)N[C@@H](C)c2ccc(F)cc2F)c(=O)[nH]c2ccnc(Nc3ccccc3)c12 [compound 278]
26 | 0.27 | 0.34 | 5.52 | Cc1c(CC(=O)N[C@@H](C)c2ccc(F)cc2F)c(=O)[nH]c2ccc(C#N)nc12 [compound 281]
27 | 100.00 | 100.00 | 100.00 | Cc1nccc2[nH]c(=O)c(CC(=O)N[C@H](CO)c3ccncc3)c(C)c12 [compound 292]
28 | 100.00 | 73.40 | 100.00 | Cc1nccc2[nH]c(=O)c(CC(=O)N[C@@H](CO)c3ccncc3)c(C)c12 [compound 293]
29 | 10.21 | 17.50 | 100.00 | Cc1c(CC(=O)N[C@@H](C)c2ccc(F)cc2F)c(=O)[nH]c2ccc(O)nc12 [compound 299]
30 | 100.00 | 100.00 | 100.00 | C[C@H](NC(=O)Cc1cc2nc(O)ccc2[nH]c1=O)c1ccc(F)cc1F [compound 300]
31 | 2.39 | 1.55 | 9.62 | CCN(CC)c1nccc2[nH]c(=O)c(CC(=O)N[C@@H](C)c3ccc(F)cc3F)c(C)c12 [compound 343]
32 | 10.74 | 1.83 | 51.73 | Cc1c(CC(=O)N[C@@H](C)c2ccc(F)cc2F)c(=O)[nH]c2ccnc(N3CCOCC3)c12 [compound 345]
33 | 100.00 | 2.37 | 100.00 | Cc1c(CC(=O)N[C@@H](C)c2ccc(F)cc2F)c(=O)[nH]c2ccnc(N3CCCC3)c12 [compound 346]
34 | 0.76 | 0.13 | 5.41 | Cc1c(C(C)C(=O)N[C@@H](C)c2ccc(F)cc2F)c(=O)[nH]c2ccnc(I)c12 (stereo partly drawn) [compound 349]
35 | 0.99 | 0.06 | 1.99 | CC#Cc1nccc2[nH]c(=O)c(CC(=O)N[C@@H](C)c3ccc(F)cc3F)c(C)c12 [compound 350]
36 | 0.14 | 0.06 | 0.97 | CCNc1nccc2[nH]c(=O)c(CC(=O)N[C@@H](C)c3ccc(F)cc3F)c(C)c12 [compound 351]
37 | 2.64 | 0.18 | 31.62 | Cc1c(CC(=O)N[C@@H](C)c2ccc(F)cc2F)c(=O)[nH]c2ccnc(N)c12 [compound 352]
38 | 0.14 | 0.06 | 0.31 | Cc1c(CC(=O)N[C@@H](C)c2ccc(F)cc2F)c(=O)[nH]c2ccnc(I)c12 [compound 353]
39 | 2.11 | 0.19 | 49.13 | CNc1nccc2[nH]c(=O)c(CC(=O)N[C@@H](C)c3ccc(F)cc3F)c(C)c12 [compound 354]
40 | 0.06 | 0.06 | 0.31 | Cc1c(CC(=O)N[C@@H](C)c2ccc(F)cc2F)c(=O)[nH]c2ccc(Br)nc12 [compound 357]
41 | 0.11 | 0.04 | 100.00 | Cc1c(CC(=O)N[C@@H](C)c2ccc(F)cc2F)c(=O)[nH]c2ccc(OC(F)(F)F)nc12 [compound 359]
42 | 9.38 | 0.40 | 100.00 | CC(C(=O)N[C@@H](C)c1ccc(F)cc1F)c1cc2c(I)nccc2[nH]c1=O (stereo partly drawn) [compound 362]
